From ChEMBL document CHEMBL1201862, “PubChem BioAssay data set” (2004)
Activity calls are given as the source filed them.

Columns and labels:
HEK293 = test: EBV LMP1 TES2 canonical NF-kB signalling blockers – cell-based, HEK293, luciferase, cherry-pick, dose response (AID 588343); assay type: functional; details: Homo sapiens
[1] = target: T1, Adenosylmethionine-8-amino-7-oxononanoate aminotransferase (Mycobacterium tuberculosis, UniProt P9WQ81); test: Mycobacterium tuberculosis BioA enzyme inhibitor Measured in Biochemical System Using Plate Reader - 2163-02_Inhibitor_Dose_CherryPick_Activity.; assay type: functional, Mycobacterium tuberculosis UT205
T1 sequence (P9WQ81 whole entry): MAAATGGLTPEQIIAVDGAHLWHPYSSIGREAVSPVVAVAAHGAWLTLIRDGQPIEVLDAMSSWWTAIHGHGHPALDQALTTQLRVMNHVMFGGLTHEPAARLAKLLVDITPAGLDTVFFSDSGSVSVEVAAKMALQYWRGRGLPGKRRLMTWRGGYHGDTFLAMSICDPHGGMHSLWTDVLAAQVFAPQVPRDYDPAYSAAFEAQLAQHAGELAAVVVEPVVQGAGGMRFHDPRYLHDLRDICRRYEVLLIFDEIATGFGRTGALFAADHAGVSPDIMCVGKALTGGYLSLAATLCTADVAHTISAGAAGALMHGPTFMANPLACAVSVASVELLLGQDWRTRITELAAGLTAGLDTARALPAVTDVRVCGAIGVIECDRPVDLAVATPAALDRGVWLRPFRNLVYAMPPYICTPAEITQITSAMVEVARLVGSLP

[2] = system: Streptococcus sp. 'group A'; test: Streptococcus pyogenes SK(-)GAS viability under kanamycin – luminescence, BacTiterGlo, confirmation, counter-screen for streptokinase expression inhibitor project, dose response (AID 1900); assay type: functional, organism-based
[3] = Trypanosoma cruzi growth suppression in host cells – NIH3T3 host cells, beta-gal luminescence, confirmation (AID 2044); assay type: functional, cell-based;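 further: intracellular parasites grown in NIH/3T3 mouse fibroblasts as host cells; luminescent beta-galactosidase reporter signal from transgenic T. cruzi replicating inside host cells; inhibitors lower the luminescence signal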
[4] = NIH3T3 cell viability loss – ATP luminescence, mouse fibroblasts, counter-screen, dose response (AID 2010); assay type: functional, cell-based;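 further: cells exposed to compound for about 90 hours before reading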
Streptococcus = test: GAS UMAA2166 growth inhibition – luminescence, BacTiterGlo, counter-screen for streptokinase expression inhibitor project, dose response (AID 1915); assay type: functional, organism-based;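 further: potency for reduction of bacterial viability or growth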
H9c2 = test: cells; assay type: functional, cell-based; details: Rattus norvegicus, H9c2, Myocardium;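 further: confirmatory concentration-response retest of ultra-high-throughput screening hits for modulation of myocardial damage; cell death induced by hydrogen peroxide oxidative stress; compound pretreatment for 60 min then peroxide exposure for 2 h; potency is for protecting the cells against peroxide damage rather than for killing them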
[5] = reduction of Shn3 3'UTR-driven luciferase in osteoblasts – cell-based, Clone20 osteoblasts, firefly luciferase, cherry-picked, dose response (AID 624132); assay type: functional;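 further: firefly luciferase luminescence from reporter carrying the Shn3 3'UTR in osteoblasts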
[6] = loss of viability in HepG2 cells – cell-based, CellTiter-Glo, cherry-picked, cytotoxicity control for Shn3 inhibitor project, dose response (AID 624134); assay type: functional
[7] = non-specific 3'UTR reporter inhibition in Clone20-Shn3RL – cell-based, Renilla luciferase, cherry-picked, counter-screen for Shn3 inhibitor project, dose response (AID 624133); assay type: functional
[8] = target: T2, Endoribonuclease toxin MazF (Escherichia coli K-12, UniProt P0AE70); test: activation of MazEF endoribonuclease cleavage – biochemical, fluorescence, single-stranded RNA substrate, uHTS hits, dose response (AID 588481); assay type: functional
T2 sequence (P0AE70 whole entry): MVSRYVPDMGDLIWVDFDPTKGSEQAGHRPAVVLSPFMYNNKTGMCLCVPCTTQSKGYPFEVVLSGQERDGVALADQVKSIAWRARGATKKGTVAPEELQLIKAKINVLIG

[9] = target: T2, Endoribonuclease toxin MazF; test: substrate-only fluorescence increase artefacts – biochemical, single-stranded RNase substrate, counter-screen for MazEF activator project, dose response (AID 588502); assay type: functional
[10] = target: T3, Replicative DNA helicase DnaB (Mycobacterium tuberculosis, UniProt P9WMR3); test: DnaB intein splicing inhibitors, dose response, biochemical, cell-free fluorescence (AID 449749); assay type: functional
T3 sequence (P9WMR3 whole entry): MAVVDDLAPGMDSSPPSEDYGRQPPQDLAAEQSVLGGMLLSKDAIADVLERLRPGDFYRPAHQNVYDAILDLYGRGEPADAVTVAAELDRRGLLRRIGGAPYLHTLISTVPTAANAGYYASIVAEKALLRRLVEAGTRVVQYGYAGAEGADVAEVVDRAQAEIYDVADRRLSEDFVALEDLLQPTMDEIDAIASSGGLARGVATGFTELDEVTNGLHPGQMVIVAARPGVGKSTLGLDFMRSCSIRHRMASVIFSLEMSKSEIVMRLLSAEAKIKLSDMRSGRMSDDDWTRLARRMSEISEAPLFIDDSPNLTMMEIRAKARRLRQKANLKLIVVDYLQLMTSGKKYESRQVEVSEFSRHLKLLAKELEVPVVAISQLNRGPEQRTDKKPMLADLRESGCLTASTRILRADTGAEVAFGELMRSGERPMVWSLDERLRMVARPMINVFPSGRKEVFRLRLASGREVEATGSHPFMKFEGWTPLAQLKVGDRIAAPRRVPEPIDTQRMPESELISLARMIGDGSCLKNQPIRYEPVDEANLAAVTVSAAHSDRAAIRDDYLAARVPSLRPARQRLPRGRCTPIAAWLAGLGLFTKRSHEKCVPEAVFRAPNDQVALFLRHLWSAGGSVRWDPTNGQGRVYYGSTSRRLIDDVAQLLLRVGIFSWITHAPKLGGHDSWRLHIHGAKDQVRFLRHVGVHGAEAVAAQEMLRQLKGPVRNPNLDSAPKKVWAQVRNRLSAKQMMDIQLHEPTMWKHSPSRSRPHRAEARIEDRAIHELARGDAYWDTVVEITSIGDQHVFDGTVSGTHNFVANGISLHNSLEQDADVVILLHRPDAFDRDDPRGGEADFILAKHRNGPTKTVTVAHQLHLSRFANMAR

Protein RecA = target: T4, Protein RecA (Mycobacterium tuberculosis, UniProt P9WHJ3); test: Fluorescence Cell-Free Homogeneous Dose Retest to Identify Inhibitors of RecA-Intein Splicing Activity. [Related pubchem assays (depositor defined):AID2097, AID2223, AID489010, AID492950]; assay type: functional
T4 sequence (P9WHJ3 whole entry): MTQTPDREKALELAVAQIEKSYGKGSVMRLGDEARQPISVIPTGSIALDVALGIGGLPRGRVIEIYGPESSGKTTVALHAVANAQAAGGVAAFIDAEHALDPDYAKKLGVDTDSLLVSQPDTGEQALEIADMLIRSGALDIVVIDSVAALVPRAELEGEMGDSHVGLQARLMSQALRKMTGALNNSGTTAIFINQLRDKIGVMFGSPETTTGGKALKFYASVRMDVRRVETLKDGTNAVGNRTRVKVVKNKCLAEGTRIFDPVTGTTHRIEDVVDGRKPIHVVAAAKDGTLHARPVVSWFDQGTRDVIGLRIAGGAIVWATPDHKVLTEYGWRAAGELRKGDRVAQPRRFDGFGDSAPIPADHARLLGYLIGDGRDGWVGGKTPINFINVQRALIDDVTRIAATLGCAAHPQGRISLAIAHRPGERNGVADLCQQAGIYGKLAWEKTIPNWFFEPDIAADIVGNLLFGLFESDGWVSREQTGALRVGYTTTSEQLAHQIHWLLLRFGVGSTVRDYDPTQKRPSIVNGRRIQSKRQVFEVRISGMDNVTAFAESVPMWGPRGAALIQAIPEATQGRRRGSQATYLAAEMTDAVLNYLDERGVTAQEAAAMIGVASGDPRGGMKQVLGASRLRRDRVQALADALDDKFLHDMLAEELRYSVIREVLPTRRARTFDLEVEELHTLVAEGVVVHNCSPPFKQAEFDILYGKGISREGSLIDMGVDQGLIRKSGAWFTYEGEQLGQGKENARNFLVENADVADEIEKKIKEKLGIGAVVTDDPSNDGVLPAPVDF

Vero = test: cells; assay type: functional; details: Chlorocebus sabaeus
[11] = T. cruzi growth inhibition in host cells, dose response, cell-based, plate reader, dry powder, set 2 (AID 652275); assay type: functional
INS1 = test: INS-1E survival protection against cytokine death – cell-based, luminescence, retest, dose response (AID 449756); assay type: functional; details: Rattus norvegicus;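 further: cell death triggered by IL-1 beta plus TNF-alpha plus IFN-gamma mixture; protective hits raise ATP signal compared with cytokine alone wells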
[12] = blockers of HIV-1 envelope-mediated cell-cell fusion – cherry-pick, dose response (AID 652057); assay type: functional, cell-based
[13] = viability loss in CEM21 cells – cell-based, CellTiter-Glo luminescence, cherry-picked, cytotoxicity control for viral fusion inhibitor project, dose response (AID 652042); assay type: functional;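 further: potency for signal decrease meaning cytotoxicity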
[14] = HIV-1 AD8 envelope cell-cell fusion blockers – cherry-pick, dose response (AID 652062); assay type: functional, cell-based;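 further: luciferase signal from cell-cell fusion driven by HIV-1 clade B AD8 Env; potency is for inhibitors of fusion seen as a drop in luminescence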
Cryptococcus neoformans = test: PubChem AID 686997; assay type: functional, organism-based; details: Cryptococcus neoformans

Question: Which AC50 (HEK293) does the source give for `CCCN(CCC)c1[nH]cnc2ncnc1-2` here?
Answer: 21.2 µM (active)

Question: Which AC50 [1] does the source give for `CCCCN1C(=O)c2ccc(C(=O)Nc3cccnc3)cc2C1=O` here?
Answer: 0.544 µM (active)

Question: Which results are given for `CCCN(CCC)S(=O)(=O)c1ccc(C(=O)Nc2nnc(-c3cc(OC)cc(OC)c3)o2)cc1`?
Answer: EC50 [2]: 0.12 µM (active); EC50 [3]: 0.965 µM (active); EC50 [4]: 3.92 µM (active); EC50 (Streptococcus): 0.43 µM (active); AC50 (HEK293): 2.51 µM (active); IC50 (H9c2): > 79 µM (inactive); AC50 [5]: 2.64 µM (active); AC50 [6]: 1.33 µM (active); AC50 [7]: 3.45 µM (active)

Question: For `C=CCSC1=N/C(=C\c2cc(OC)c3c(c2)OCO3)C(=O)S1`, which EC50 [8] is on record?
Answer: 20.7 µM (inactive)

Question: What about the EC50 [9] of the same compound?
Answer: 64.5 µM (inactive)

Question: Which EC50 [8] does the source give for `Nc1nc(N)c2cc(S(=O)(=O)c3ccc4ccccc4c3)ccc2n1` here?
Answer: > 99 µM (inactive)

Question: What about the EC50 [9] of the same compound?
Answer: > 99 µM (inactive)

Question: And the AC50 [5]?
Answer: 3.37 µM (active)

Question: And the AC50 [6]?
Answer: 2.82 µM (active)

Question: For `Cc1ccc(C)c(Nc2nc3c(S(=O)(=O)c4ccccc4)nnn3c3ccccc23)c1`, which EC50 [8] is on record?
Answer: > 99 µM (inactive)

Question: What about the EC50 [9] of the same compound?
Answer: > 99 µM (inactive)

Question: What does the source list for `Cc1ccccc1N(Cc1cc(O)nc2ccccc12)C(=O)CCl`?
Answer: AC50 [10]: 50.5 µM (active); EC50 (Protein RecA): 6.26 µM (active); CC50 (Vero): 17.5 µM (active)

Question: With `COc1ccccc1CN(C)C[C@H]1Oc2c(NC(=O)c3ccncc3)cccc2C(=O)N([C@@H](C)CO)C[C@@H]1C` as the compound, how does the AC50 [11] read?
Answer: 0.078 µM (active)

Question: For `CC(C)N1C[C@@H](CN(C)Cc2ccc(Cl)cc2)Oc2c(C(=O)Nc3ccncc3)cccc2C1=O`, which AC50 [11] is on record?
Answer: 0.00079 µM (active)

Question: For `Clc1ccc(CSc2nnc(-c3cccnc3)o2)cc1`, which AC50 [1] is on record?
Answer: 4.13 µM (active)

Question: With `CN1/C(=C/C(=O)c2ccc(Cl)cc2)Sc2cc3c(cc21)OCO3` as the compound, how does the EC50 [8] read?
Answer: > 99 µM (inactive)

Question: And the EC50 [9]?
Answer: 62.3 µM (inactive)

Question: Which results are given for `O=C(OCCOc1cccc(Cl)c1)c1cc(S(=O)(=O)N2CCCCC2)ccc1N1CCOCC1`?
Answer: EC50 [3]: 3.05 µM (active); EC50 [4]: > 30 µM (not active); AC50 (INS1): 4.81 µM (active); AC50 [12]: 48.3 µM (active); AC50 [13]: 52.3 µM (active); AC50 [14]: 22.1 µM (active)

Question: With `O=C(Nc1ccc(F)c(Cl)c1)C1CCCN(c2cnccn2)C1` (configuration not stated) as the compound, how does the EC50 [3] read?
Answer: 0.39 µM (active)

Question: And the EC50 [4]?
Answer: > 60 µM (not active)

Question: And the AC50 [1]?
Answer: 3.25 µM (active)

Question: Which AC50 (Cryptococcus neoformans) does the source give for `COc1cccc(NC(=S)N2CCC(Cc3ccccc3)CC2)c1` here?
Answer: 36.8 µM (active)
